{"source": "patent US20230274799A1", "about": "“SYSTEMS AND METHODS FOR PATIENT STRATIFICATION AND IDENTIFICATION OF POTENTIAL BIOMARKERS” (Berg LLC, priority 2016, published 2023)", "test": "Phase I trial, adverse events (CTCAE v4.02)", "format": "in vivo, human", "text": "The study is a standard 3+3 dose escalation design with the dose escalated in successive cohorts of 3 to 6 patients each. Toxicity at each dose level is graded according to National Cancer Institute Common Terminology Criteria for Adverse Events (CTCAE v4.02). Safety oversight is provided by the Cohort Review Committee (CRC). If none of the 3 patients in a cohort experiences a DLT during Cycle 1, then 3 new patients may be entered at the next higher dose level following CRC review of safety and PK data from lower cohorts. The clinical trial is described in greater detail in WO2015/035094, which is incorporated by reference herein in its entirety.\nFour grade 3 events were reported. During the time period covered by Example 1, 1503 adverse events were reported. 75 events were reported as serious. Of the serious adverse events, 27 were not related, 38 were unlikely related, 8 were possibly related, one was probably related and, one was definitely related (activated partial thromboplastin time (APTT) prolonged).\nThe table below contains the adverse events reported with a frequency of 4% or greater.", "key": {"[1]": {"conditions": "Grade 2, 3*, adverse events with frequency of 4% or greater"}, "[2]": {"conditions": "time period covered by Example 1"}}, "data": [{"smiles": "COC1=C(OC)C(=O)C(C/C=C(\\C)CC/C=C(\\C)CC/C=C(\\C)CC/C=C(\\C)CC/C=C(\\C)CC/C=C(\\C)CC/C=C(\\C)CC/C=C(\\C)CC/C=C(\\C)CCC=C(C)C)=C(C)C1=O", "note": "[Coenzyme Q10]", "values": [{"measurement": "Anemia, Number of Occurrences", "setting": "Grade 2, 3", "result": 38}, {"measurement": "Anemia, Percentage of Occurrences", "setting": "Grade 2, 3", "result": "(15%)"}, {"measurement": "Elevated AST, Number of Occurrences", "setting": "Grade 2, 3", "result": 14}, {"measurement": "Elevated AST, Percentage of Occurrences", "setting": "Grade 2, 3", "result": "(6%)"}, {"measurement": "Fatigue, Number of Occurrences", "setting": "Grade 2, 3", "result": 11}, {"measurement": "Fatigue, Percentage of Occurrences", "setting": "Grade 2, 3", "result": "(4%)"}, {"measurement": "Elevated PT/PTT/INR, Number of Occurrences", "setting": "[1]", "result": 67}, {"measurement": "Elevated PT/PTT/INR, Percentage of Occurrences", "setting": "[1]", "result": "(26%)"}, {"measurement": "Thrombocytopenia, Number of Occurrences", "setting": "Grade 2, 3, 4*", "result": 34}, {"measurement": "Thrombocytopenia, Percentage of Occurrences", "setting": "Grade 2, 3, 4*", "result": "(13%)"}, {"measurement": "Hypertriglyceridemia, Number of Occurrences", "setting": "Grade 2, 4*", "result": 15}, {"measurement": "Hypertriglyceridemia, Percentage of Occurrences", "setting": "Grade 2, 4*", "result": "(6%)"}, {"measurement": "Number of grade 3 PT/PTT/INR prolongation events reported", "setting": "in vivo", "result": "Four"}, {"measurement": "Most common related adverse events", "setting": "mitigated after Vitamin K administration", "result": "grade 1-2 prothrombin time (PT)/partial thromboplastin time(PTT)/International Normalized Ratio (INR) prolongation"}, {"measurement": "Serious adverse events not related", "setting": "of 75 serious events", "result": 27}, {"measurement": "Serious adverse events possibly related", "setting": "of 75 serious events", "result": 8}, {"measurement": "Serious adverse events probably related", "setting": "of 75 serious events", "result": "one"}, {"measurement": "Serious adverse events unlikely related", "setting": "of 75 serious events", "result": 38}, {"measurement": "Serious adverse events definitely related", "setting": "of 75 serious events, activated partial thromboplastin time (APTT) prolonged", "result": "one"}, {"measurement": "Number of adverse events reported", "setting": "[2]", "result": 1503}, {"measurement": "Number of events reported as serious", "setting": "[2]", "result": 75}]}]}
